Read-outs that look alike come from different tables or passages of the source.
Tests used:
Type in all cases: in vivo
[1] = tested on: crabgrass, large (large crabgrass, Digitaria sanguinalis); assay: Test A pre-/postemergence: crabgrass, large; settings: for pest or weed control at 125 g/ha / pest or weed control at 500 g/ha: Digitaria sanguinalis, 240 h
Procedure, shortened: (§1)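 Seeds were sown in loam/sand blend and sprayed preemergence (directed soil spray) and, simultaneously, postemergence at 2–10 cm, one- to two-leaf stage, using compounds in non-phytotoxic solvent with surfactant. After ~10 days in greenhouse, injury was rated visually versus untreated controls, 0 (no effect) to 100 (complete control).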

[2] = tested on: foxtail, giant (giant foxtail, Setaria faberii); assay: Test A pre-/postemergence: foxtail, giant; settings: for pest or weed control at 125 g/ha / pest or weed control at 500 g/ha: Setaria faberi, 240 h
Procedure, shortened: as §1

[3] = tested on: corn (Zea mays); assay: Test A pre-/postemergence: corn; settings: for plant injury at 125 g/ha / plant injury at 500 g/ha / Corn plant response rating (crop injury, 0 = no effect, 100 = complete kill) at 125 g/ha / Corn plant response rating (crop injury, 0 = no effect, 100 = complete kill) at 500 g/ha: Zea mays, 240 h; for plant injury at 125 g/ha / plant injury at 500 g/ha: post-emergence, read-out: Corn plant response rating; for plant injury at 500 g/ha: visual rating on 0 to 100 scale (0 no effect, 100 complete control), approximately ten days; for Corn plant response rating (crop injury, 0 = no effect, 100 = complete kill) at 125 g/ha / Corn plant response rating (crop injury, 0 = no effect, 100 = complete kill) at 500 g/ha: pre-emergence
Procedure, shortened: as §1

[4] = tested on: winter wheat (Triticum aestivum); assay: Test C pre-/postemergence: winter wheat; settings: Preemergence
Description: (§2) Seeds of plant species selected from blackgrass (Alopecurus myosuroides), bromegrass, downy (downy bromegrass, Bromus tectorum), foxtail, green (green foxtail, Setaria viridis), ryegrass, Italian (Italian ryegrass, Lolium multiflorum), winter wheat (Triticum aestivum), wild oat (Avena fatua), galium (catchweed bedstraw, Galium aparine), bermudagrass (Cynodon dactylon), surinam grass (Brachiaria decumbens), cocklebur (common cocklebur, Xanthium strumarium), corn (Zea mays), large crabgrass (Digitaria sanguinalis), woolly cupgrass (Eriochloa villosa), foxtail, giant (giant foxtail, Setaria faberii), goosegrass (Eleusine indica), johnsongrass (Sorghum halepense), kochia (Kochia scoparia), lambsquarters (Chenopodium album), morningglory (Ipomoea coccinea), nightshade (eastern black nightshade, Solanum ptycanthum), nutsedge, yellow (yellow nutsedge, Cyperus esculentus), pigweed (Amaranthus retroflexus), ragweed (common ragweed, Ambrosia elation), soybean (Glycine max), common (oilseed) sunflower (Helianthus annuus), Russian thistle (Salsola kali) and velvetleaf (Abutilon theophrasti) were planted into a blend of loam soil and sand and treated preemergence with test chemicals formulated in a non-phytotoxic solvent mixture which included a surfactant.
(§3) At the same time, plants selected from these crop and weed species and also barley (winter barley, Hordeum vulgare), canarygrass (Phalaris minor), chickweed (common chickweed, Stellaria media) windgrass (Apera spica-venti) and deadnettle (henbit deadnettle, Lamium amplexicaule) were planted in pots containing Redi-Earth® planting medium (Scotts Company, 14111 Scottslawn Road, Marysville, Ohio 43041) comprising spaghnum peat moss, vermiculite, wetting agent and starter nutrients and treated with postemergence applications of test chemicals formulated in the same manner. Plants ranged in height from 2 to 18 cm (1- to 4-leaf stage) for postemergence treatments.
(§4) Treated plants and controls were maintained in a greenhouse for 13 to 15 days, after which time all species were compared to controls and visually evaluated. Plant response ratings, summarized in Table C, are based on a scale of 0 to 100 where 0 is no effect and 100 is complete control. A dash (-) response means no test result.

[5] = tested on: large crabgrass (Digitaria sanguinalis); assay: Test C pre-/postemergence: large crabgrass; settings: Preemergence
Description: as §2, §3, §4

[6] = tested on: foxtail, giant (giant foxtail, Setaria faberii); assay: Test C pre-/postemergence: foxtail, giant; settings: Preemergence
Description: as §2, §3, §4

[7] = tested on: pigweed (Amaranthus retroflexus); assay: Test C pre-/postemergence: pigweed; settings: Preemergence
Description: as §2, §3, §4

[8] = tested on: soybean (Glycine max); assay: Test C pre-/postemergence: soybean; settings: Preemergence
Description: as §2, §3, §4

[9] = tested on: velvetleaf (Abutilon theophrasti); assay: Test C pre-/postemergence: velvetleaf; settings: Preemergence
Description: as §2, §3, §4

[10] = post-emergence, Postemergence, 125 g ai/ha, 0 to 100 scale, 0 is no effect, 100 is complete control, read-out: Crabgrass, Large plant response rating
[11] = post-emergence, Postemergence, 500 g ai/ha, visual rating on 0 to 100 scale (0 no effect, 100 complete control), approximately ten days, read-out: Crabgrass, Large plant response rating
[12] = post-emergence, Postemergence, 125 g ai/ha, 0 to 100 scale, 0 is no effect, 100 is complete control, read-out: Foxtail, Giant plant response rating
[13] = post-emergence, Postemergence, 500 g ai/ha, visual rating on 0 to 100 scale (0 no effect, 100 complete control), approximately ten days, read-out: Foxtail, Giant plant response rating
[14] = Postemergence, 125 g ai/ha, 0 to 100 scale, 0 is no effect, 100 is complete control
[15] = Postemergence, 500 g ai/ha, 0 to 100 scale, 0 is no effect, 100 is complete control
[16] = Preemergence, 125 g ai/ha, 0 to 100 scale where 0 is no effect and 100 is complete control
[17] = Preemergence, 500 g ai/ha, 0 to 100 scale (0 no effect, 100 complete control)
[18] = 16 g ai/ha, scale 0 (no effect) to 100 (complete control)
[19] = 31 g ai/ha, scale 0 (no effect) to 100 (complete control)
[20] = 62 g ai/ha, scale of 0 to 100, 0 is no effect, 100 is complete control
[21] = 125 g ai/ha, scale 0 to 100, 0 no effect, 100 complete control

COc1nn(-c2ccc(C(F)(F)F)cc2)nc1Cn1ccc(C(F)(F)F)n1 [Compound 17, 4-methoxy-2-[4-(trifluoromethyl)phenyl]-5-[[3-(trifluoromethyl)-1H-pyrazol-1-yl]methyl]-2H-1,2,3-triazole]
pest or weed control at 125 g/ha [1, 10]: 90%
pest or weed control at 500 g/ha [1, 11]: 90%
pest or weed control at 125 g/ha ([1]; pre-emergence, Preemergence, 125 g ai/ha, 0 to 100 scale (0 no effect, 100 complete control), read-out: Plant response rating, Crabgrass, Large): 100%
pest or weed control at 500 g/ha ([1]; pre-emergence, Preemergence, 500 g ai/ha, 0 to 100 scale, 0 is no effect, 100 is complete control, read-out: Plant response rating, Crabgrass, Large): 100%
pest or weed control at 125 g/ha [2, 12]: 60%
pest or weed control at 500 g/ha [2, 13]: 80%
pest or weed control at 125 g/ha ([2]; pre-emergence, Preemergence, 125 g ai/ha, 0 to 100 scale (0 no effect, 100 complete control), read-out: Plant response rating, Foxtail, Giant): 90%
pest or weed control at 500 g/ha ([2]; pre-emergence, Preemergence, 500 g ai/ha, 0 to 100 scale, 0 is no effect, 100 is complete control, read-out: Plant response rating, Foxtail, Giant): 100%
plant injury at 125 g/ha [3, 14]: 30%
plant injury at 500 g/ha ([3]; Postemergence, 500 g ai/ha): 30%
Corn plant response rating (crop injury, 0 = no effect, 100 = complete kill) at 125 g/ha ([3]; Preemergence, 125 g ai/ha, 0 to 100 scale (0 no effect, 100 complete control)): 0%
Corn plant response rating (crop injury, 0 = no effect, 100 = complete kill) at 500 g/ha ([3]; Preemergence, 500 g ai/ha, 0 to 100 scale, 0 is no effect, 100 is complete control): 20%

CCOc1nn(-c2ccc(Br)cc2)nc1Cc1ccnc(C(F)(F)F)c1 [Compound 189]
Plant response rating, Crabgrass, Large [1, 14]: 80
Crabgrass, Large plant response rating [1, 15]: 90
Plant response rating, Crabgrass, Large [1, 16]: 100
Plant response rating, Crabgrass, Large [1, 17]: 100
Plant response rating, Foxtail, Giant [2, 14]: 90
Foxtail, Giant plant response rating [2, 15]: 90
Plant response rating, Foxtail, Giant [2, 16]: 100
Plant response rating, Foxtail, Giant [2, 17]: 100
Plant response rating, Corn [3, 14]: 20
Corn plant response rating [3, 15]: 40
Plant response rating, Corn [3, 16]: 10
Plant response rating, Corn [3, 17]: 10
Plant response rating, Wheat [4, 18]: 0
Plant response rating, Wheat [4, 19]: 5
Plant response rating, Wheat [4, 20]: 15
Plant response rating, Wheat [4, 21]: 30
Plant response rating, Crabgrass, Large [5, 18]: 98
Plant response rating, Crabgrass, Large [5, 19]: 98
Plant response rating, Crabgrass, Large [5, 20]: 100
Plant response rating, Crabgrass, Large [5, 21]: 100
Plant response rating, Foxtail, Giant [6, 18]: 100
Plant response rating, Foxtail, Giant [6, 19]: 100
Plant response rating, Foxtail, Giant [6, 20]: 100
Plant response rating, Foxtail, Giant [6, 21]: 100
Plant response rating, Pigweed [7, 18]: 85
Plant response rating, Pigweed [7, 19]: 98
Plant response rating, Pigweed [7, 20]: 100
Plant response rating, Pigweed [7, 21]: 100
Plant response rating, Soybean [8, 18]: 5
Plant response rating, Soybean [8, 19]: 5
Plant response rating, Soybean [8, 20]: 15
Plant response rating, Soybean [8, 21]: 25
Plant response rating, Velvetleaf [9, 18]: 10
Plant response rating, Velvetleaf [9, 19]: 15
Plant response rating, Velvetleaf [9, 20]: 40
Plant response rating, Velvetleaf [9, 21]: 60

CCc1nn(-c2ccc(C(F)(F)F)cc2)nc1Oc1cccc(OC(F)(F)F)c1 [Compound 125, 4-ethyl-5-[3-(trifluoromethoxy)phenoxy]-2-[4-(trifluoromethyl)phenyl]-2H-1,2,3-triazole]
pest or weed control at 125 g/ha [1, 10]: 60%
pest or weed control at 500 g/ha [1, 11]: 90%
pest or weed control at 125 g/ha ([1]; pre-emergence, Preemergence, 125 g ai/ha, 0 to 100 scale where 0 is no effect and 100 is complete control, read-out: Plant response rating, Crabgrass, Large): 80%
pest or weed control at 500 g/ha ([1]; pre-emergence, Preemergence, 500 g ai/ha, 0 to 100 scale (0 no effect, 100 complete control), read-out: Plant response rating, Crabgrass, Large): 90%
pest or weed control at 125 g/ha [2, 12]: 50%
pest or weed control at 500 g/ha [2, 13]: 60%
pest or weed control at 125 g/ha ([2]; pre-emergence, Preemergence, 125 g ai/ha, 0 to 100 scale where 0 is no effect and 100 is complete control, read-out: Plant response rating, Foxtail, Giant): 80%
pest or weed control at 500 g/ha ([2]; pre-emergence, Preemergence, 500 g ai/ha, 0 to 100 scale (0 no effect, 100 complete control), read-out: Plant response rating, Foxtail, Giant): 90%
plant injury at 125 g/ha [3, 14]: 20%
plant injury at 500 g/ha ([3]; Postemergence, 500 g ai/ha): 30%
Corn plant response rating (crop injury, 0 = no effect, 100 = complete kill) at 125 g/ha [3, 16]: 0%
Corn plant response rating (crop injury, 0 = no effect, 100 = complete kill) at 500 g/ha [3, 17]: 0%

Reference: patent US9302999B2, “Substituted triazoles as herbicides” (E. I. DU PONT DE NEMOURS AND COMPANY, priority 2012, dated 2016)
